# Results from patent publication US20060263802A1 (priority 2003, published 2006).
# Tests used:
# Format in all cases: binding
# [1] = test system: human monoclonal antibody CRJA
# [2] = test system: human monoclonal antibody CR57
# [3] = test system: human monoclonal antibody CRJB
# [4] = test system: human monoclonal antibody CR57; remark: listed apart in the source
# [5] = test system: human monoclonal antibody CRJB; remark: listed apart in the source
# [6] = test system: human monoclonal antibody CRJA; remark: listed apart in the source
Sequence,Binding of CRJA to linear peptide (PEPSCAN-ELISA signal) [1],Binding of CR57 to linear peptide (PEPSCAN-ELISA signal) [2],Binding of CRJB (10 μg/ml) to looped/cyclic peptide (PEPSCAN-ELISA) [3],Binding of CR57 (10 μg/ml) to looped/cyclic peptide (PEPSCAN-ELISA) [4],Binding of CRJB to linear peptide (PEPSCAN-ELISA signal) [5],Binding of CRJA (10 μg/ml) to looped/cyclic peptide (PEPSCAN-ELISA) [6],Binding of CRJB (10 μg/ml) to looped/cyclic peptide (PEPSCAN-ELISA signal) [3],Binding of CR57 (10 μg/ml) to looped/cyclic peptide (PEPSCAN-ELISA signal) [4],Binding of CRJA (10 μg/ml) to looped/cyclic peptide (PEPSCAN-ELISA signal) [6],Binding of human monoclonal antibody CRJA to linear peptide (PEPSCAN-ELISA signal) [1],Binding of human monoclonal antibody CR57 to linear peptide (PEPSCAN-ELISA signal) [2],Binding of CRJB to looped/cyclic peptide (PEPSCAN-ELISA signal) [3],Binding of CR57 to looped/cyclic peptide (PEPSCAN-ELISA signal) [4],Binding of human monoclonal antibody CRJB to linear peptide (PEPSCAN-ELISA signal) [5],Binding of CRJA to looped/cyclic peptide (PEPSCAN-ELISA signal) [6]
PEMQSSLLQQHMELL,79,62,82,72,133,78,,,,,,,,,
GVAVSSTYCSTNHDY,83,79,,,114,,80,111,96,,,,,,
PDYRWLRTVKTTKES,83,76,,,85,,72,79,90,,,,,,
SETCGFVDERGLYKS,71,33,78,58,116,56,,,,,,,,,
HNQVSGVDLGLPNWG,,,,,,,,,,66,76,100,78,106,55
SVRTWNEILPSKGCL,123,106,147,151,138,165,,,,,,,,,
DAHYKSVRTWNEILP,107,59,100,90,121,98,,,,,,,,,
DFVEVHLPDVHNQVS,,,,,,,,,,92,96,92,113,141,113
KRKHFRPTPDACRAA,65,65,,,93,,84,94,85,,,,,,
SHLRKLVPGFGKAYT,118,113,103,143,132,160,,,,,,,,,
VHLPDVHNQVSGVDL,,,,,,,,,,104,110,94,105,114,92
FNKTLMEADAHYKSV,86,111,129,124,141,101,,,,,,,,,
YVTTTFKRKHFRPTP,84,85,,,106,,111,146,137,,,,,,
RLSHLRKLVPGFGKA,93,93,111,111,123,106,,,,,,,,,
